Laboratory results from patent US20140066842A1, “MICRONEEDLE DEVICES AND METHODS” (3M INNOVATIVE PROPERTIES COMPANY, priority 2011, published 2014).

What was measured:
[1] = In vivo delivery of lidocaine to swine skin tissue from coated microneedle array (biopsy, LC/MS/MS); details: dose-extending component delivered with lidocaine and/or prilocaine by microneedles
Method: The in vivo delivery of lidocaine to tissue using the coated microneedle array described above was determined using naïve young adult female mixed breed agricultural swine (Yorkshire X from Midwest Research Swine, Gibbon, Minn.). Swine with minimal skin pigmentation and weighing 10-40 kg were selected for the study. The animals were initially sedated with ketamine (10 mg/kg) and glycopyrrolate (0.011 mg/kg) was intramuscularly administered to reduce salivary, tracheobronchial, and pharyngeal secretions. Hair and dirt on pig skin at the intended application sites were removed prior to application of the microneedle array to minimize complications Skin test sites were selected based on lack of skin pigmentation and skin damage. The hair was first clipped using an electric shaver followed by shaving with a wet multi-blade disposable razor (Schick Xtreme3) and shaving cream (Gillette Foamy Regular) while the animal was under anesthesia.
A light surgical plane of anesthesia was achieved by administering 1.5-5% isoflurane in 1.5-4 L of oxygen by mask. Anesthetized animals were placed in lateral recumbency on insulated table pads. During the experiment, the animals were placed on a heated table to control body temperature at approximately 38° C. Animals were observed continuously until normal recovery was attained. […] The biopsy punch samples were stored at −20° C. until analyzed. […]
Protein precipitation was used to prepare the digested tissue samples for analysis by LC/MS/MS. […] The resulting sample was quantitatively analyzed using a Sciex API3000 triple quadrupole mass spectrometer (Applied Biosystems, Foster City, Calif.) running in positive ion mode using Turbo IonSpray interface to monitor the product ions resulting from the m/z transitions: 235→86.2 for lidocaine and 247→97.5 for mepivacaine. The linear range for lidocaine was 50.0 to 20,000 ng/mL evaluated using 1/x^2 curve weighting. […]

[2] = Discoloration of tissue in which local anesthetic/dose-extending component are administered; type: in vivo; details: dose-extending component administered with local anesthetic by the microneedle devices

SMILES	Extension of the local anesthetic dose (tissue levels compared with local anesthetic without the alpha adrenergic agonist) [1]	Discoloration of the tissue [2]
Nc1cc(Cl)c(N=C2NCCN2)c(Cl)c1 [apraclonidine]	extend the local anesthetic dose	without any appreciable tissue discoloration
Clc1cccc(Cl)c1N=C1NCCN1 [clonidine]	extend the local anesthetic dose	without any appreciable tissue discoloration
CNC[C@H](O)c1ccc(O)c(O)c1 [epinephrine]		cause discoloration of the tissue, resulting in a blue or bruised appearance
N=C(N)NC(=O)Cc1c(Cl)cccc1Cl [guanfacine]	extend the local anesthetic dose	without any appreciable tissue discoloration
